Data as given in ChEMBL document CHEMBL1136680, “Synthesis and biological activities of phthalocyanine-estradiol conjugates” (2003).
Activity calls are given as the source filed them. The rule behind the calls is not given here.

Tests used:
[1] = target: Estrogen receptor (Homo sapiens) (UniProt Q92731+P03372); test: Displacement of [3H]estradiol from estrogen receptor; type: protein assay; settings: tested as the Zn salt or complex
EMT6 [2] = test: In vitro phototoxicity in EMT-6 cells at 1 uM after 6 hr MTT assay; type: functional, Mus musculus
EMT6 [3] = test: In vitro phototoxicity in EMT-6 cells at 1 uM after 24 hr r MTT assay; type: functional, Mus musculus
EMT6 [4] = test: In vitro phototoxicity in EMT-6 cells at 1 uM after 24 hr r MTT assay; Not active; type: functional, cell-based; settings: Mus musculus, tested as the Zn salt or complex
EMT6 [5] = test: In vitro phototoxicity in EMT-6 cells at 1 uM after 6 hr MTT assay; Not active; type: functional, cell-based; settings: Mus musculus, tested as the Zn salt or complex

| SMILES | relative binding affinity (RBA) [1] | LD90 (EMT6 [2]) | LD90 (EMT6 [3]) | LD90 (EMT6 [4]) | LD90 (EMT6 [5]) |
| --- | --- | --- | --- | --- | --- |
| C[C@]12CC[C@@H]3c4ccc(O)cc4CC[C@H]3[C@@H]1CC[C@]2(O)CCCCC#CC#Cc1cccc2c1-c1nc-2nc2[nH]c(nc3nc(nc4[nH]c(n1)c1ccc(S(=O)(=O)[O-])cc41)-c1ccc(S(=O)(=O)[O-])cc1-3)c1ccc(S(=O)(=O)[O-])cc21.[Na+].[Na+].[Na+].[Zn] | 0.56 | 12 J cm**-2 | 4.3 J cm**-2 |  |  |
| CCCCc1ccc2c(c1)-c1nc-2nc2[nH]c(nc3nc(nc4[nH]c(n1)c1ccc(CCCC)cc41)-c1ccc(C#CC#Cc4cccc([C@@]5(O)CC[C@H]6[C@@H]7CCc8cc(O)ccc8[C@H]7CC[C@@]65C)c4)cc1-3)c1ccc(CCCC)cc21 | 8.54 |  |  | inactive | inactive |
| CCCCc1ccc2cc3c(cc2c1)-c1nc-3nc2[nH]c(nc3nc(nc4[nH]c(n1)c1cc5ccc(CCCC)cc5cc41)-c1ccc(C#C[C@@]4(O)CC[C@H]5[C@@H]6CCc7cc(O)ccc7[C@H]6CC[C@@]54C)cc1-3)c1cc3ccc(CCCC)cc3cc21 | 10.4 |  |  | inactive | inactive |
| C[C@]12CC[C@@H]3c4ccc(O)cc4CC[C@H]3[C@@H]1CC[C@]2(O)C#Cc1ccc2c(c1)-c1nc-2nc2[nH]c(nc3nc(nc4[nH]c(n1)c1ccc(S(=O)(=O)[O-])cc41)-c1ccc(S(=O)(=O)[O-])cc1-3)c1cc(S(=O)(=O)[O-])ccc21.[Na+].[Na+].[Na+].[Zn] | 1.64 | 7 J cm**-2 | 5.1 J cm**-2 |  |  |
| CCCCc1ccc2c(c1)-c1nc-2nc2[nH]c(nc3nc(nc4[nH]c(n1)c1ccc(CCCC)cc41)-c1ccc(C#C[C@@]4(O)CC[C@H]5[C@@H]6CCc7cc(O)ccc7[C@H]6CC[C@@]54C)cc1-3)c1ccc(CCCC)cc21 | 1.35 |  |  | inactive | inactive |
| C[C@]12CC[C@@H]3c4ccc(O)cc4CC[C@H]3[C@@H]1CC[C@]2(O)c1cccc(C#CC#Cc2ccc3c(c2)-c2nc-3nc3[nH]c(nc4nc(nc5[nH]c(n2)c2ccc(S(=O)(=O)[O-])cc52)-c2ccc(S(=O)(=O)[O-])cc2-4)c2ccc(S(=O)(=O)[O-])cc32)c1.[Na+].[Na+].[Na+].[Zn] | 0.3 | 10.4 J cm**-2 | 4 J cm**-2 |  |  |
| C[C@]12CC[C@@H]3c4ccc(O)cc4CC[C@H]3[C@@H]1CC[C@]2(O)c1ccc(C#CC#Cc2ccc3c(c2)-c2nc-3nc3[nH]c(nc4nc(nc5[nH]c(n2)c2ccc(S(=O)(=O)[O-])cc52)-c2ccc(S(=O)(=O)[O-])cc2-4)c2ccc(S(=O)(=O)[O-])cc32)cc1.[Na+].[Na+].[Na+].[Zn] | 1.22 | 10.4 J cm**-2 | 5.3 J cm**-2 |  |  |
| CCCCc1ccc2c(c1)-c1nc-2nc2[nH]c(nc3nc(nc4[nH]c(n1)c1ccc(CCCC)cc41)-c1cccc(C#C[C@@]4(O)CC[C@H]5[C@@H]6CCc7cc(O)ccc7[C@H]6CC[C@@]54C)c1-3)c1ccc(CCCC)cc21 | 12.9 |  |  | inactive | inactive |
| C[C@]12CC[C@@H]3c4ccc(O)cc4CC[C@H]3[C@@H]1CC[C@]2(O)CCCCC#CC#Cc1ccc2c(c1)-c1nc-2nc2[nH]c(nc3nc(nc4[nH]c(n1)c1ccc(S(=O)(=O)[O-])cc41)-c1ccc(S(=O)(=O)[O-])cc1-3)c1ccc(S(=O)(=O)[O-])cc21.[Na+].[Na+].[Na+].[Zn] | 1.26 | 7.3 J cm**-2 | 2.9 J cm**-2 |  |  |
| CCCCc1ccc2c(c1)-c1nc-2nc2[nH]c(nc3nc(nc4[nH]c(n1)c1ccc(CCCC)cc41)-c1ccc(C#CC#CCCCC[C@@]4(O)CC[C@H]5[C@@H]6CCc7cc(O)ccc7[C@H]6CC[C@@]54C)cc1-3)c1ccc(CCCC)cc21 | 3.08 |  |  | inactive | inactive |
| C[C@]12CC[C@@H]3c4ccc(O)cc4CC[C@H]3[C@@H]1CC[C@]2(O)C#Cc1cccc2cc3c(cc12)-c1nc-3nc2[nH]c(nc3nc(nc4[nH]c(n1)c1ccc(S(=O)(=O)[O-])cc41)-c1ccc(S(=O)(=O)[O-])cc1-3)c1cc(S(=O)(=O)[O-])ccc21.[Na+].[Na+].[Na+].[Zn] | 1.24 | 12 J cm**-2 | 3 J cm**-2 |  |  |
